# Article PMC7957563, “The Novel benzamide Derivative, VKNG-2, Restores the Efficacy of Chemotherapeutic Drugs in Colon Cancer Cell Lines by Inhibiting the ABCG2 Transporter” (International Journal of Molecular Sciences, 2021)
# Target: T1, ABCG2 transporter (Homo sapiens, UniProt Q9UNQ0)
# T1 construct: ABCG2-overexpressing cell membranes
# T1 sequence (Q9UNQ0 1-655): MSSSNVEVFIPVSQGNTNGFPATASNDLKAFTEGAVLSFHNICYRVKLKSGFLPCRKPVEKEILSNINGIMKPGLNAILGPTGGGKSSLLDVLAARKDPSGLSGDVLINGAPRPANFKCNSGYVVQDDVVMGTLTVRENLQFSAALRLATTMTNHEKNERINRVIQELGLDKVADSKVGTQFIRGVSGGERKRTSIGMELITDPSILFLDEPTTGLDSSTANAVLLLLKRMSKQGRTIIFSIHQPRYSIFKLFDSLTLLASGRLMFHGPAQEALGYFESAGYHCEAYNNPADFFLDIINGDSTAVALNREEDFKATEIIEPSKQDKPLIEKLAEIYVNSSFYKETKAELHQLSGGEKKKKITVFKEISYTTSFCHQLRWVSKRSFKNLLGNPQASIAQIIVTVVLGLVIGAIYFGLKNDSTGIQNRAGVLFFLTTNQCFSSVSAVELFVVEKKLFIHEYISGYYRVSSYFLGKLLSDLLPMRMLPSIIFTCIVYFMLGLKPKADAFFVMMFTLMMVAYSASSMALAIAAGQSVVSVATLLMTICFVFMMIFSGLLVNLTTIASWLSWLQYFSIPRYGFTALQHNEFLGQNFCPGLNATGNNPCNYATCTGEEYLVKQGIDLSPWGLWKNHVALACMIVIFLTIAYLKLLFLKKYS
# Experiment: vanadate-sensitive ATPase stimulation in ABCG2-overexpressing membranes; [3H]-mitoxantrone efflux inhibition in S1-M1-80 cells
# Assay type: biochemical
structure (smiles),measurement,value
"CCCc1ccc(NC(=O)c2ccccc2NC(=O)Nc2cccc([N+](=O)[O-])c2)cc1 [VKNG-2, 2-(3-(3-Nitrophenyl)ureido)-N-(4-propylphenyl)benzamide]",EC50,2300 nM
